Assay results from patent US5410024A, “Human cancer inhibitory pentapeptide amides” (Arizona Board of Regents acting on behalf of Arizona State …, priority 1993, dated 1995).

Tests used:
OVCAR-3 = assay: NCI human tumor cell line screen, Ovarian OVCAR-3; format: cell-based; conditions: minipanel comparison, column A (key not visible; values match OVCAR-3)
Description: (§1) Current research in the control of cancer in the United States is coordinated by the National Cancer Institute (NCI). To determine whether a substance has anti-cancer properties, the NCI has established a systematic protocol. […] The protocol, and the established statistical means for analyzing the results obtained by the standardized testing are fully described in the literature. […] Both of these references are incorporated herein by this reference thereto.

M5076 Ovary Sarcoma = assay: Murine in vivo system, M5076 Ovary Sarcoma
[1] = test system: MX-1 Human Mammary Xenograft; assay: MX-1 Human Mammary Xenograft (Tumor Regression); format: in vivo, Murine
Human Mammary Xenograph = assay: Human Mammary Xenograph, Nude Mouse; format: in vivo; conditions: 26 μg/kg
SF-295 = assay: NCI human tumor cell line screen, CNS SF-295; format: cell-based; conditions: minipanel comparison, column B (key not visible; values match SF-295)
Description: as §1

[2] = test system: OVCAR-3 Human Ovary Xenograph; assay: OVCAR-3 Human Ovary Xenograph, Nude Mouse; format: in vivo; conditions: OVCAR-3 xenograph, 40 μg/kg
KM20L2 = assay: NCI human tumor cell line screen, Colon KM20L2; format: cell-based; conditions: minipanel comparison
Description: as §1

[3] = test system: LOX Human Melanoma Xenograph; assay: LOX Human Melanoma Xenograph (Nude Mouse); format: in vivo
[4] = test system: P388 Lymphocytic Leukemia; assay: Murine in vivo system, P388 Lymphocytic Leukemia
SK-MEL-5 = assay: NCI human tumor cell line screen, Melanoma SK-MEL-5; format: cell-based; conditions: minipanel comparison, column F (key not visible; values match SK-MEL-5)
Description: as §1

NCI-H460 = assay: NCI human tumor cell line screen, Lung-NSC NCI-H460; format: cell-based; conditions: minipanel comparison, column D (key not visible; values match NCI-H460)
Description: as §1

B16 Melanoma = assay: Murine in vivo system, B16 Melanoma
A498 = assay: NCI human tumor cell line screen, Renal A498; format: cell-based; conditions: minipanel comparison, column C (key not visible; values match A498)
Description: as §1

[5] = test system: L1210 Lymphocytic Leukemia; assay: Murine in vivo system, L1210 Lymphocytic Leukemia
[6] = LOX in separate experiments, 9.0 μg/kg
[7] = LOX in separate experiments, 26 μg/kg
[8] = LOX in separate experiments, 43 μg/kg

## Dolastatin 10
OVCAR-3
  GI50, minipanel cell line A: 0.00095 ng/mL
M5076 Ovary Sarcoma; M5076, 3.25 μg/kg
  T/C: 151
M5076 Ovary Sarcoma; M5076, 6.5 μg/kg
  T/C: 142
M5076 Ovary Sarcoma; M5076, 13 μg/kg
  T/C: 166
M5076 Ovary Sarcoma; M5076, 26 μg/kg
  T/C: toxic
[1]; MX-1, 6.25 μg/kg
  T/C (Tumor Regression): 69
[1]; MX-1, 13 μg/kg
  T/C (Tumor Regression): 61
[1]; MX-1, 26 μg/kg
  T/C (Tumor Regression): 50
[1]; MX-1, 52 μg/kg
  T/C (Tumor Regression): 14
Human Mammary Xenograph
  T/C: Toxic
SF-295
  GI50, minipanel cell line B: 7.6e-05 ng/mL
[2]
  T/C: 300
KM20L2
  GI50, minipanel cell line E: 0.0047 ng/mL
[3]; [6]
  T/C: 138
  cures: 17%
[3]; LOX in separate experiments, 15 μg/kg
  T/C: 192
[3]; [7]
  T/C: 181
  cures: 33%
[3]; [8]
  T/C: 340
  cures: 50%
[3]; LOX, 3.25 μg/kg
  T/C: 170
  cures: 17%
[3]; LOX, 6.5 μg/kg
  cures: 33%
[3]; LOX, 13 μg/kg
  cures: 50%
[3]; LOX, 26 μg/kg
  cures: 67%
[3]; LOX, 52 μg/kg
  T/C: toxic
[4]; P388, 3.25 μg/kg
  cures: 17%
[4]; P388, 6.5 μg/kg
  cures: 17%
[4]; P388, 13.0 μg/kg
  T/C: toxic
SK-MEL-5
  GI50, minipanel cell line F: 0.0074 ng/mL
NCI-H460
  GI50, minipanel cell line D: 0.0034 ng/mL
B16 Melanoma; B16, 1.44 μg/kg
  T/C: 142
B16 Melanoma; B16, 3.4 μg/kg
  T/C: 171
B16 Melanoma; B16, 4.0 μg/kg
  T/C: 205
B16 Melanoma; B16, 6.67 μg/kg
  T/C: 182
B16 Melanoma; B16, 11.11 μg/kg
  T/C: 238
  cures: 40%
A498
  GI50, minipanel cell line C: 0.026 ng/mL
[5]; L1210, 1.63 μg/kg
  T/C: 120
[5]; L1210, 3.25 μg/kg
  T/C: 139
[5]; L1210, 6.5 μg/kg
  T/C: 135
[5]; L1210, 13 μg/kg
  T/C: 152
